Test results: patent US20080145893A1, “Method for producing a recombinant protein at high specific productivity, high batch yield and high volumetric yield by means of transient transfection” (EXCELLEGENE SA, priority 2006, published 2008)

Key:
HEK293E cells [1] = test: Influence of 2-aminopurine on IgG batch yield (ELISA) of transiently transfected cells; type: cell-based; details: with 3 mmol/l sodium butyrate, day 18
CHO DG44 cells = test: Influence of temperature and sodium butyrate on IgG batch yield (ELISA) of transiently transfected cells; type: cell-based; details: 2 mmol/l NaBut, peak value during 18 day cultivation
Description: After that time, 18 ml of ProCHO5 medium were added. The cells were then equally distributed into 4 new 50-ml filter tubes (i.e., 5 ml of cell suspension in each tube) and treated as follows:
Tubes 8.1 and 8.3: Addition of sodium butyrate to a final concentration of 2 mmol/l
Tubes 8.2 and 8.4: No addition of sodium butyrate.

HEK293E cells [2] = test: Influence of sodium butyrate on IgG batch yield (ELISA) of transiently transfected cells; details: day 14

SMILES	Batch yield (HEK293E cells [1]; 5 mmol/l 2-aminopurine) [mg/L]	Batch yield (HEK293E cells [1]; 10 mmol/l 2-aminopurine) [mg/L]	Maximum batch yield (CHO DG44 cells; 31° C.) [mg/L]	Maximum batch yield (CHO DG44 cells; 37° C.) [mg/L]	Batch yield (HEK293E cells [2]; 1 mmol/l NaBut) [mg/L]	Batch yield (HEK293E cells [2]; 2 mmol/l NaBut) [mg/L]	Batch yield (HEK293E cells [2]; 3 mmol/l NaBut) [mg/L]	Batch yield (HEK293E cells [2]; 6 mmol/NaBut) [mg/L]	Batch yield (HEK293E cells [2]; 12 mmol/l NaBut) [mg/L]
Nc1ncc2[nH]cnc2n1 [2-aminopurine]	628	708							
CCCC(=O)[O-].[Na+] [NaBut, sodium butyrate]			231	218	419	632	673	447	288
